Experimental data: paper PMC7369900 (International Journal of Molecular Sciences, 2020)
In brackets after ≈: the same amount, converted by molar mass.

Tests used:
[1] = tested on: HEK 293; test: cells; type: cell-based, human; settings: HEK 293, 72 h, MTT
Protocol: (§1) Among the conjugates, LVXC-S-S-CTP10-NH2 (5) was the least cytotoxic. […] In the case of HEK 293 and LLC-PK1 cells, the IC50 values of 5 were nearly four times higher. […] Additionally, we noted that the cancer cells Hep G2 were less sensitive to the action of the given compounds than the non-cancer cells (HEK 293 and LLC-PK1).
(§2) Cytotoxicity was assessed against three mammalian cell lines: LLC-PK1, Hep G2, and HEK 293. Multiwell (96–well) plates were seeded at 7000 cells/well in Medium 199 supplemented with 7.5% FBS, MEM Eagle’s medium supplemented with 10% FBS, or DMEM medium supplemented with 10% FBS, respectively. All media were supplemented with L-glutamine and antibiotics (penicillin/streptomycin). Cells were allowed to attach overnight. Drugs were dissolved in cell culture medium and added to wells in 100-µL aliquots of 2× concentrated solutions, in triplicates. To control wells, 100 µL of the medium were added. Cells were incubated with the studied compounds for 72 h at 37 °C and 95%/5% or 90%/10% (HEK 293 cells) CO2 atmosphere. Then, 20-µL aliquots of MTT solution in PBS (4 mg/mL) were added to all wells and plates were incubated further for 3 h in 37 °C. Formazan crystals formed were dissolved in 100 µL of DMSO and the absorbance of the solutions was measured using a multiwell plate reader (Spark, Tecan, Männedorf, Switzerland) at λ = 540 nm. Cytotoxicity was determined compared to the drug-free control. All experiments were performed in triplicates.

[2] = tested on: Hep G2; test: cells; type: cell-based, human; settings: Hep G2, 72 h, MTT
Protocol: as §1, §2

[3] = tested on: LLC-PK1; test: cells; type: cell-based, pig; settings: LLC-PK1, 72 h, MTT
Protocol: as §1, §2

[4] = tested on: S. aureus ATCC 29213; test: microbe, parasite or virus in culture; type: cell-based, Staphylococcus aureus; settings: S. aureus ATCC 29213, MHB
Protocol: (§3) The antibacterial activity of TP10-NH2-based conjugates, as well as its constituents, was evaluated by microdilution assay in Mueller Hinton broth, MHB (Table 1). […] There are, however, some exceptions. […] Its activity against two other tested bacteria was somewhat lower though.
(§4) The antibacterial activity (bacteriostatic: MIC and bactericidal: MBC) of the tested compounds was determined in MHB (Mueller Hinton Broth, Sigma Aldrich, St. Louis, MO, USA) using a serial two-fold dilution method in 96-well microtiter plates according to CLSI recommendations, described in M07-A10 document. The exact conditions have been described previously. All experiments were performed in three replicates. The MIC90 and MIC50 values were defined as the concentrations of compounds tested that caused a 90% or 50% reduction of growth, respectively, comparing to the drug-free control.

[5] = tested on: S. epidermidis ATCC 12228; test: microbe, parasite or virus in culture; type: cell-based, Staphylococcus epidermidis; settings: S. epidermidis ATCC 12228, MHB
Protocol: as §3, §4

[6] = tested on: E. coli ATCC 25922; test: microbe, parasite or virus in culture; type: cell-based, Escherichia coli; settings: E. coli ATCC 25922, MHB
Protocol: as §3, §4

[7] = tested on: P. aeruginosa ATCC 27853; test: microbe, parasite or virus in culture; type: cell-based, Pseudomonas aeruginosa; settings: P. aeruginosa ATCC 27853, MHB
Protocol: as §3, §4

[8] = tested on: Gram-positive and Gram-negative bacteria; type: cell-based; settings: MHB, Gram-positive bacteria
Protocol: as §3, §4

[9] = target: T1, yeast DNA topoisomerase II (Saccharomyces cerevisiae, UniProt P06786); test: biochemical; type: biochemical; settings: class; read-out: Topoisomerase II Inhibition
T1 construct: purchased Inspiralis (Norwich, UK)
T1 sequence (P06786 whole entry): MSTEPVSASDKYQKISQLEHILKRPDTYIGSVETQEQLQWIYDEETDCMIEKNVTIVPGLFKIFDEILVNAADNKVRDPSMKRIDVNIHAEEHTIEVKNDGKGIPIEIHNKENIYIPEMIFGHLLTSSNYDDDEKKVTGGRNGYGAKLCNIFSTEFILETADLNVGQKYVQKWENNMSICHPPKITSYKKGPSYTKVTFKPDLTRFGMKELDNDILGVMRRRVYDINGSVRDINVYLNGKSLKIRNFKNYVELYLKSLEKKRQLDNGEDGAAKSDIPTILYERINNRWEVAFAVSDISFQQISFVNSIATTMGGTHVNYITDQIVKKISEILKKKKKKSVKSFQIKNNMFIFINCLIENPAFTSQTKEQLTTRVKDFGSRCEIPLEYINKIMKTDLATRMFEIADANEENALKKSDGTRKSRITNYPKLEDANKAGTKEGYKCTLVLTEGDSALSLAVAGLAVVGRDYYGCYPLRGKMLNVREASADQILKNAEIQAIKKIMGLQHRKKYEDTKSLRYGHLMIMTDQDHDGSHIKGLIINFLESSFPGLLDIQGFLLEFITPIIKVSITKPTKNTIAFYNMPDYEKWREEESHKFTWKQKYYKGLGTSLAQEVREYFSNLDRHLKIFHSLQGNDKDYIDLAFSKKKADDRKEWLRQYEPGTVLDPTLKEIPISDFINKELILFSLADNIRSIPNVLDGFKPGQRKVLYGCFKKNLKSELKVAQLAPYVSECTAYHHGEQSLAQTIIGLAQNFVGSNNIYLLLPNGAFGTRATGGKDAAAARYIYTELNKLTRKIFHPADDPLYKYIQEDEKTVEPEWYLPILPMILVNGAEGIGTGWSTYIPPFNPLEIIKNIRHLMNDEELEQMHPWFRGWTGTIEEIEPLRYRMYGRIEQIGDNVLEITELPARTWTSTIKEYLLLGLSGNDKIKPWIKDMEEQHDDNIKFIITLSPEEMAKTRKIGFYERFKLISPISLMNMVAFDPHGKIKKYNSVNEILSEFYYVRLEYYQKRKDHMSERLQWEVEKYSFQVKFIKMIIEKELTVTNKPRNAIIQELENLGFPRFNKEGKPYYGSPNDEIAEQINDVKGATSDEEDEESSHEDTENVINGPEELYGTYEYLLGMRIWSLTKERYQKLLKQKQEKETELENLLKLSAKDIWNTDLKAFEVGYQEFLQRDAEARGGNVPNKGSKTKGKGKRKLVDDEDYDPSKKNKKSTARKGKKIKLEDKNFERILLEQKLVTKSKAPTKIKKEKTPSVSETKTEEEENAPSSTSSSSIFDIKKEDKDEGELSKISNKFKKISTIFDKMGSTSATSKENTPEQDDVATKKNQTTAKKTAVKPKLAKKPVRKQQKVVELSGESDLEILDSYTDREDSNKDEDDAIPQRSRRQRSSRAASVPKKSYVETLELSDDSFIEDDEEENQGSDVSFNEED

[10] = tested on: HEK 293; test: ROS generation (CM-H2DCFDA, flow cytometry); type: cell-based, human; settings: for ROS HEK 293: positive cells in 24 h, class
Protocol: (§5) In the positive controls treated with H2O2, the fraction of ROS-positive cells exceeded 75%. […] Strikingly, in HL-60, a biologically significant effect was observed almost immediately (after 15 min of incubation). The same was noted after 1 h in the HEK 293 cell line. […] Similarly, conjugates 4 and 5 generated ROS at the low level (less than 15% for HL-60 and less than 20% for HEK 293) (manuscript in preparation). […] For HL-60, the critical level of ROS was noted after 15 min of incubation.
(§6) ROS generation activity was evaluated as described previously. Briefly, HEK 293 cells were seeded on 35-mm Petri dishes in the amount of 15,000 cells per plate for 24 h in DMEM medium. […] Positive controls contained 250 µM H2O2, while negative controls were without any additions. After 0.5, 2.5, 5.5, and 24 h of incubation at 37 °C, the CM-H2DCFDA molecular probe (Thermo Fischer Scientific, Waltham, USA) was added to the plates and incubation was continued for another 0.5 h. The HEK 293 cells were detached with 0.05% trypsin solution in PBS and HBSS (Hank’s Balanced Salt Solution) and suspended in fresh DMEM medium. All samples were additionally stained with 7-AAD (7-aminoactinomycin D, 0.8 µg/mL) and immediately analysed with a Guava easyCyte flow cytometer (Merc, Burlington, USA). The determinations were performed in triplicates.

[11] = tested on: HL-60; test: ROS generation (CM-H2DCFDA, flow cytometry); type: cell-based, human; settings: for ROS HL-60: positive cells in 24 h, class
Protocol: as §5, §6

[12] = tested on: C. albicans SC 5314
[13] = tested on: C. albicans Δopt1Δopt5Δptr2Δptr22
[14] = tested on: C. albicans Gu4
[15] = tested on: C. glabrata DSM 11226
[16] = tested on: C. krusei DSM 6128
[17] = tested on: human red blood cells; test: Hemolysis assay; settings: 1 h, 37 °C

Row | SMILES | IC50 [1] | IC50 [2] | IC50 [3] | MIC50 [4] | MIC90 [4] | MIC50 [5] | MIC90 [5] | MIC50 [6] | MIC90 [6] | MIC50 [7] | MIC90 [7] | IC50 [9] | ROS level (positive cells) ([10]; HEK 293) | ROS HEK 293 [10] | MIC50 [12] | MIC50 [13] | MIC90 [13] | MIC50 [14] | MIC50 [15] | MIC50 [16] | other results
1 | CC[C@H](C)[C@H](NC(=O)[C@H](CCCCN)NC(=O)[C@H](CCCCN)NC(=O)[C@H](C)NC(=O)[C@H](CC(C)C)NC(=O)[C@H](C)NC(=O)[C@H](C)NC(=O)[C@H](CC(C)C)NC(=O)[C@H](C)NC(=O)[C@H](CCCCN)NC(=O)[C@H](CC(C)C)NC(=O)[C@H](CC(N)=O)NC(=O)[C@@H](NC(=O)[C@H](CCCCN)NC(=O)CNC(=O)[C@H](CC(C)C)NC(=O)[C@H](CC(C)C)NC(=O)[C@H](Cc1ccc(O)cc1)NC(=O)CNC(=O)[C@H](C)NC(=O)[C@@H](N)CS)[C@@H](C)CC)C(=O)N[C@@H](CC(C)C)C(N)=O [CTP10-NH2] | 19.5 ± 2.93 µM | 60 ± 5.75 µM | 51.6 ± 8.66 µM | – | – | – | – | – | – | – | – | – | – | – | – | – | – | – | – | – | –
2 | CC[C@H](C)[C@H](NC(=O)[C@H](CCCCN)NC(=O)[C@H](CCCCN)NC(=O)[C@H](C)NC(=O)[C@H](CC(C)C)NC(=O)[C@H](C)NC(=O)[C@H](C)NC(=O)[C@H](CC(C)C)NC(=O)[C@H](C)NC(=O)[C@H](CCCCN)NC(=O)[C@H](CC(C)C)NC(=O)[C@H](CC(N)=O)NC(=O)[C@@H](NC(=O)[C@H](CCCCN)NC(=O)CNC(=O)[C@H](CC(C)C)NC(=O)[C@H](CC(C)C)NC(=O)[C@H](Cc1ccc(O)cc1)NC(=O)CNC(=O)[C@H](C)NC(=O)c1cn2c3c(c(N4CCN(C)CC4)c(F)cc3c1=O)OC[C@@H]2C)[C@@H](C)CC)C(=O)N[C@@H](CC(C)C)C(N)=O [Compound 4, LVX-TP10-NH2] | 22.5 ± 9.7 µM | 72.6 ± 13 µM | 52.9 ± 8.15 µM | 1.6 µM (≈ 4.04 µg/mL) | 1.6 µM (≈ 4.04 µg/mL) | 1.6 µM (≈ 4.04 µg/mL) | 1.6 µM (≈ 4.04 µg/mL) | 50 µM (≈ 126 µg/mL) | 50 µM (≈ 126 µg/mL) | 100 µM (≈ 253 µg/mL) | 100 µM (≈ 253 µg/mL) | < 10 µM | less than 20% | ++ (++ <10% positive cells in 24 h) | 50 µM (≈ 126 µg/mL) | 100 µM (≈ 253 µg/mL) | 100 µM (≈ 253 µg/mL) | 25 µM (≈ 63.1 µg/mL) | >200 µM | 100 µM (≈ 253 µg/mL) | MIC90 against Gram-positive bacteria [8]: 1.6 µM (≈ 4.04 µg/mL); ROS level (positive cells) ([11]; HL-60): less than 15%; ROS HL-60 [11]: + (+ <15% positive cells in 24 h); MIC90 [12]: 100 µM (≈ 253 µg/mL)
3 | CC[C@H](C)[C@H](NC(=O)[C@H](CCCCN)NC(=O)[C@H](CCCCN)NC(=O)[C@H](C)NC(=O)[C@H](CC(C)C)NC(=O)[C@H](C)NC(=O)[C@H](C)NC(=O)[C@H](CC(C)C)NC(=O)[C@H](C)NC(=O)[C@H](CCCCN)NC(=O)[C@H](CC(C)C)NC(=O)[C@H](CC(N)=O)NC(=O)[C@@H](NC(=O)[C@H](CCCCN)NC(=O)CNC(=O)[C@H](CC(C)C)NC(=O)[C@H](CC(C)C)NC(=O)[C@H](Cc1ccc(O)cc1)NC(=O)CNC(=O)[C@H](C)NC(=O)[C@@H](N)CSSC[C@H](NC(=O)c1cn2c3c(c(N4CCN(C)CC4)c(F)cc3c1=O)OC[C@@H]2C)C(=O)O)[C@@H](C)CC)C(=O)N[C@@H](CC(C)C)C(N)=O [Compound 5, LVXC-S-S-CTP10-NH2] | 41.3 ± 1.1 µM | 102 ± 4.9 µM | 105 ± 15.6 µM | 6.25 µM (≈ 17.2 µg/mL) | 6.25 µM (≈ 17.2 µg/mL) | 3.125 µM (≈ 8.59 µg/mL) | 3.125 µM (≈ 8.59 µg/mL) | 3.125 µM (≈ 8.59 µg/mL) | 3.125 µM (≈ 8.59 µg/mL) | 12.5 µM (≈ 34.3 µg/mL) | 25 µM (≈ 68.7 µg/mL) | < 50 µM | less than 20% | ++ (++ <10% positive cells in 24 h) | 12.5 µM (≈ 34.3 µg/mL) | 12.5 µM (≈ 34.3 µg/mL) | 25 µM (≈ 68.7 µg/mL) | 12.5 µM (≈ 34.3 µg/mL) | >200 µM | 50 µM (≈ 137 µg/mL) | ROS level (positive cells) ([11]; HL-60): less than 15%; ROS HL-60 [11]: ++ (++ <10% positive cells in 24 h); MIC90 [12]: 25 µM (≈ 68.7 µg/mL); MHC50 (concentration causing 50% hemolysis) [17]: 140 µg/mL; MHC50 (concentration causing 50% hemolysis) ([17]; converted from μg/mL): ~ 51 μM
4 | CC[C@H](C)[C@H](NC(=O)[C@H](CCCCN)NC(=O)[C@H](CCCCN)NC(=O)[C@H](C)NC(=O)[C@H](CC(C)C)NC(=O)[C@H](C)NC(=O)[C@H](C)NC(=O)[C@H](CC(C)C)NC(=O)[C@H](C)NC(=O)[C@H](CCCCN)NC(=O)[C@H](CC(C)C)NC(=O)[C@H](CC(N)=O)NC(=O)[C@@H](NC(=O)[C@H](CCCCN)NC(=O)CNC(=O)[C@H](CC(C)C)NC(=O)[C@H](CC(C)C)NC(=O)[C@H](Cc1ccc(O)cc1)NC(=O)CNC(=O)[C@H](C)NC(=O)[C@@H](N)CSSC[C@H](N)C(=O)N1CCN(c2cc3c(cc2F)c(=O)c(C(=O)O)cn3C2CC2)CC1)[C@@H](C)CC)C(=O)N[C@@H](CC(C)C)C(N)=O [Compound 6, CIPC-S-S-CTP10-NH2] | 20.8 ± 10.9 µM | 37.7 ± 2.84 µM | 21.3 ± 1.33 µM | 3.125 µM (≈ 8.49 µg/mL) | 3.125 µM (≈ 8.49 µg/mL) | 6.25 µM (≈ 17 µg/mL) | 6.25 µM (≈ 17 µg/mL) | 6.25 µM (≈ 17 µg/mL) | 6.25 µM (≈ 17 µg/mL) | >100 µM | >100 µM | – | – | ++ (++ <10% positive cells in 24 h) | 50 µM (≈ 136 µg/mL) | 50 µM (≈ 136 µg/mL) | 50 µM (≈ 136 µg/mL) | 25 µM (≈ 67.9 µg/mL) | >200 µM | >200 µM | ROS induction ([10]; HEK 293): did not induce a significant level of ROS; Incubation time at which significant/critical ROS level was noted ([11]; HL-60): 15 min
